How the values were obtained:
Assay in all cases: 3' UTR reporter interaction score (median-centred robust z-score of log2 firefly/Renilla activity); higher = less repression of the 3' UTR reporter
Conditions in all cases: HEK293T; 48 h
BRCA2 = tested on: BRCA2
In short: (§1)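 For the interaction score, the firefly/Renilla ratio was log-transformed, expressed as a robust z-score per plate using median and median absolute deviation, and median-centred per miRNA; a more negative score indicates interaction. These scores come from at least two independent screens, averaged. Each screen used HEK293T cells at 10,000/well in 96-well plates, co-transfected with DharmaFECT Duo carrying 100 ng luc2P 3' UTR reporter, 20 ng pRL-TK and 2.5 pmol miRNA mimic, with luciferase read at 48 h.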

EZH2 = tested on: EZH2
In short: as §1

FBXW7 = tested on: FBXW7
In short: as §1

HRAS = tested on: HRAS
In short: as §1

MYB = tested on: MYB
In short: as §1

MYCN = tested on: MYCN
In short: as §1

MYC = tested on: MYC
In short: as §1

MYT1L = tested on: MYT1L
In short: as §1

NOTCH1 = tested on: NOTCH1
In short: as §1

PHF6 = tested on: PHF6
In short: as §1

PHOX2B = tested on: PHOX2B
In short: as §1

RB1 = tested on: RB1
In short: as §1

TP53 = tested on: TP53
In short: as §1

ZEB2 = tested on: ZEB2
In short: as §1

Row | Sequence | 3' UTR reporter interaction score (BRCA2) | 3' UTR reporter interaction score (EZH2) | 3' UTR reporter interaction score (FBXW7) | 3' UTR reporter interaction score (HRAS) | 3' UTR reporter interaction score (MYB) | 3' UTR reporter interaction score (MYCN) | 3' UTR reporter interaction score (MYC) | 3' UTR reporter interaction score (MYT1L) | 3' UTR reporter interaction score (NOTCH1) | 3' UTR reporter interaction score (PHF6) | 3' UTR reporter interaction score (PHOX2B) | 3' UTR reporter interaction score (RB1) | 3' UTR reporter interaction score (TP53) | 3' UTR reporter interaction score (ZEB2)
1 | UGGAGGAGAAGGAAGGUGAUG | -2.61 | -2.61 | -0.125 | -0.351 | 1.88 | 0.481 | -2.42 | 2.74 | -0.968 | -0.248 | 2.06 | 1.82 | -0.557 | 3.77
2 | UGGCAGUGUAUUGUUAGCUGGU | 0.888 | -0.805 | 0.551 | 1.02 | -4.53 | -4.71 | -2.6 | -0.141 | -4.47 | -3.24 | -0.186 | -0.641 | 0.314 | 0.089
3 | UGGCAGUGUCUUAGCUGGUUGUU | 0.486 | 0.955 | -0.0417 | 1.33 | -2.9 | -3.64 | -0.668 | 1.45 | -3.59 | -0.889 | -0.535 | -0.641 | 1.68 | 0.283
4 | UGGCUCAGUUCAGCAGGAACAG | 1.1 | -0.274 | -0.156 | -1.16 | 0.0413 | 0.921 | -2.14 | 0.53 | -1.7 | -0.0264 | 0.0378 | 0.0253 | 0.345 | 0.984
5 | UGGGCGUAUCUGUAUGCUA | -0.638 | -1.3 | 0.752 | -0.235 | 0.397 | 0.906 | -0.549 | 0.105 | -2.02 | 1.09 | 2.15 | -0.659 | -0.0916 | 2.53
6 | UGGUAGACUAUGGAACGUA | -0.722 | -0.991 | 0.552 | -0.461 | 0.96 | 0.966 | -0.304 | 0.0286 | 0.639 | -0.619 | -0.373 | 1.85 | -0.283 | 0.356
7 | UGGUCUAGGAUUGUUGGAGGAG | 0.659 | 1.07 | -0.0822 | 1.1 | 0.332 | 0.689 | 0.131 | -1.45 | -3.72 | -1.9 | -0.574 | -0.907 | 0.772 | -1.89
8 | UGGUGCGGAGAGGGCCCACAGUG | -0.582 | -0.738 | 0.508 | -0.688 | -0.475 | 0.131 | -0.919 | 1.6 | 0.612 | 0.575 | 0.217 | 0.451 | -0.894 | 0.607
9 | UGGUGGGCCGCAGAACAUGUGC | -0.495 | -0.375 | 1.65 | -0.926 | -0.29 | 0.848 | 0.0166 | 1.92 | -1.38 | -0.487 | 0.685 | -1.35 | 0.539 | 0.648
10 | UGGUUCUAGACUUGCCAACUA | -1.9 | 0.495 | 0.0613 | 0.292 | 0.383 | 0.807 | 0.238 | -0.905 | -0.954 | 0.0797 | -0.729 | 0.0711 | -0.646 | 1.08
11 | UGGUUGACCAUAGAACAUGCGC | -0.794 | -1.23 | -0.743 | -0.568 | 2.68 | 1.49 | -0.769 | 3.19 | 2.11 | 0.184 | 1.74 | 3.51 | -0.14 | 2.61
12 | UGGUUUACCGUCCCACAUACAU | -0.68 | 0.684 | 0.14 | -0.0846 | 0.643 | 0.327 | -0.285 | 1.3 | -0.0746 | -0.512 | 0.385 | 0.158 | -0.635 | 1.07
13 | UGUAAACAUCCCCGACUGGAAG | -0.00428 | 0.0787 | 0.0307 | 0.945 | 0.447 | -1 | -0.345 | 0.873 | -0.121 | 0.331 | 0.775 | 1.18 | -0.339 | -1.09
14 | UGUAAACAUCCUACACUCAGCU | 0.276 | 0.233 | 0.842 | 1.01 | 0.789 | -0.781 | -0.616 | 0.998 | -0.804 | -1.63 | -0.561 | 0.456 | -0.377 | -1.14
15 | UGUAAACAUCCUACACUCUCAGC | 0.774 | -0.7 | 0.711 | 0.698 | 0.661 | -0.445 | -0.915 | 0.183 | -1.62 | 0.545 | 0.58 | 0.235 | 0.239 | -2.01
16 | UGUAGUGUUUCCUACUUUAUGGA | -3.32 | 0.133 | -0.472 | 0.941 | 0.85 | 1.22 | 0.753 | 1.44 | -0.00364 | -0.93 | 0.885 | -0.511 | -0.138 | -2.54
17 | UGUCACUCGGCUCGGCCCACUAC | 1.08 | 0.621 | 0.218 | -0.561 | 0.0813 | 0.184 | -0.146 | 0.664 | 0.551 | -0.284 | -0.663 | -0.766 | 0.457 | -1.79
18 | UGUCAGUUUGUCAAAUACCCC | -0.428 | -0.235 | -3.7 | 0.221 | 0.7 | 0.673 | 0.119 | 0.484 | 0.533 | -0.327 | 1.35 | 0.229 | -1.17 | 1.58
19 | UGUCUGCCCGCAUGCCUGCCUCU | 0.911 | 1.24 | 0.234 | -2.78 | -1.11 | -1.48 | -0.223 | 0.694 | -0.629 | 1.55 | -1.69 | 0.711 | -0.199 | -0.366
